In the NIST ThermoML archive (doi:10.1016/j.jct.2007.06.016):
Numbers after ± are expanded uncertainties.

Key:
[1] = refractive index (Na D-line) (dimensionless); conditions: 298.15 K; 101.33 kPa; Liquid; Standard Abbe refractometry
[2] = 298.15 K, 101.33 kPa, Liquid

| SMILES | refractive index [1] | mass density [2] [kg/m3] | mass density ([2]; Vibrating tube method) [kg/m3] |
| --- | --- | --- | --- |
| C1CCCCC1 [cyclohexane] | 1.42403 ± 0.00068 | 773.76 ± 0.52 | – |
| c1ccsc1 [thiophene] | 1.52581 ± 0.0007 | 1058.5 ± 0.55 | – |
| CCCCCCCCn1cc[n+](C)c1.O=S(=O)([N-]S(=O)(=O)C(F)(F)F)C(F)(F)F | 1.43331 ± 0.0012 | – | 1320.76 ± 9.5 |
| CCCCCCCCCCCC [dodecane] | 1.42011 ± 0.0007 | 745.32 ± 0.91 | – |
